For assay [1], the target named is T1, Islet amyloid polypeptide (Homo sapiens, UniProt P10997).
T1 sequence (P10997 whole entry): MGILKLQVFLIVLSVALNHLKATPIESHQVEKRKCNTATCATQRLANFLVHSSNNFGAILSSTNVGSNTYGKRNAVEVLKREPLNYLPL
Briefly: Inhibition of islet amyloid polypeptide (unknown origin) aggregation after 24 hrs by thioflavin T based fluorescence assay.

In assay [2] the test system is BRIN-BD11. Briefly: Protective activity against IAPP-induced toxicity in rat […] cells assessed as cell viability at 0.02 to 0.63 uM after 72 hrs by MTT assay. Format: functional, cell-based. The following applies: dose 0.02-0.63 µM.
A short description of assay [3]: Protective activity against IAPP-induced toxicity in rat BRIN-B11 cells assessed as cell viability after 72 hrs by MTT assay. The following applies: BRIN-BD11, 72 h.
Assay [4] has as its system BRIN-BD11. As to the kind of experiment: Protective activity against IAPP-induced toxicity in rat […] cells assessed as cell viability at 10 uM after 72 hrs by MTT assay. Format: functional, cell-based.

For seven compounds, IC50, Activity and EC50 results are on record in ChEMBL document CHEMBL4834398, “Synthesis of Yakuchinone B-Inspired Inhibitors against Islet Amyloid Polypeptide Aggregation” (J Nat Prod, 2021).

The source made the active and inactive calls. The calls are words filed in the database; no cut-off is given here.

`CC(=O)CCc1ccc(O)c(O)c1`: the concentration for half-maximal inhibition (IC50) in assay [1] is more than 10000 nM.
In the case of `CCCC(=O)/C=C/c1cccc(O)c1O`, the outcome in the assay with BRIN-BD11 [2] was Active. Also, in assay [3], the half-maximal effective concentration (EC50) was 100 nM.
For `CCCCC(=O)/C=C/c1cccc(O)c1O`, in that order: “Active” and 200 nM.
For `CCC(=O)/C=C/c1cccc(O)c1O`, in the assay on BRIN-BD11 [4], the result was inactive.
Compound `O=c1c(O)c(-c2ccc(O)cc2O)oc2cc(O)cc(O)c12` [MORIN] registered a half-inhibitory concentration (IC50) in assay [1] of 7800 nM. Moreover, in assay [3], the EC50 amounted to 1000 nM.
In assay [1], `CC(=O)/C=C/c1ccc(O)c(O)c1` came in with a 50% inhibitory concentration (IC50) of 3700 nM. This counts as single-digit micromolar.
For the compound `CC(=O)/C=C/c1cccc(O)c1O`, the result with BRIN-BD11 [4] was inactive.
